No end group written: not given here.
Experiments:
GAS M type M3 = assay: Opsonophagocytosis / bactericidal activity in vitro, GAS M type M3; assay type: cell-based, Group A streptococci; details: for reduction of M3 type bacteria: in vitro versus control; for % CFU reduction: in vitro, GAS M type M3
Method: (§1) Opsonophagocytosis assays were performed as previously described in Lancefield, R. C., Persistence of type-specific antibodies in man following infection with group A streptococci, 1959, J. Immunol., 89:307. Briefly, diluted serum (50 μl) was added to mid-log phase GAS (10^3 CFU) in Todd-Hewitt broth (50 μl) and whole, heparinized blood (500 μl) from a nonopsonic human donor. Mixtures were briefly vortexed and placed at 37° C. in a shaker for 3 hours. Dilutions were then plated on trypticase soy agar plates (5% sheep blood) to quantitate viable organisms. The % killing is expressed as [(CFU control-CFU test)/CFU control]×100.
(§2) Some of the peptides tested in the previous examples were tested for cross-type protection using the methods described above. […] The peptide tested and serotype against which it was tested is indicated.

streptococci (GAS) = assay: Nasopharyngeal colonization challenge in vaccinated mice; assay type: in vivo; details: vaccinated mice relative to alum-only control mice; nasal wash 24 hours after 10^4 CFU challenge
Method: (§3) Mice (6 week old female Swiss Webster, Harley-Sprague) were immunized subcutaneously (s.c.) with either the peptide in alum or alum alone for control groups. Peptides were rotated in the alum mixture for 2 hours at 4° C. and stored at 4° C. overnight prior to use.
(§4) Mice were challenged intranasally one week after the final booster injection was administered. Prior to being challenged, mice were anesthetized with a ketamine/xylazine mixture. Mice were then given 10^4-10^5 CFU (10 μl) of streptococci intranasally via a microliter pipette. They were sacrificed 24 hours after the challenge and the nasopharyngeal passages were washed with approximately 100 μl physiological saline which was collected and immediately placed on ice. Dilutions of the wash were then plated on trypticase soy agar plates (5% sheep blood) and incubated at 37° C. for 18 hours to quantitate viable organisms. Nasopharyngeal colonization in immunized mice was compared to non-immunized controls. Statistical analysis of the NP data was accomplished using the t-test and rank sum test.
Nasopharyngeal (NP) colonization challenge experiments were performed on mice vaccinated (s.c.) with either M3-1 or M3-2 peptide in alum in comparison to control animals which received alum only. The nasopharyngeal colonization challenge was performed by doing a nasal wash 24 hours after challenge. […]

GAS M type M43 = assay: Opsonophagocytosis / bactericidal activity in vitro, heterologous GAS M type M43; assay type: cell-based, Group A streptococci; details: for reduction of M43 type bacteria: in vitro versus control; for % CFU reduction: in vitro, heterologous GAS M type M43
Method: as §1, §2

GAS = assay: Opsonophagocytosis assay in vitro with sera of immunized mice; assay type: cell-based, Group A streptococci; details: human whole blood, 3 hours
Method: as §1
Each of the sera tested positive in the assay and was able to reduce the amount of viable bacteria relative to controls.

[1] = test system: anti-M protein antibodies in mouse sera; assay: ELISA of sera of mice immunized s.c. with peptide in alum (immunogenicity); assay type: in vivo, mice (Swiss Webster)
Method: (§5) Levels of anti-M protein antibodies in mouse sera were determined by an enzyme-linked immunosorbent assay (ELISA) using either synthetic peptides or whole M protein as antigen. Microtiter plates (DYNEX Immulon 2 HB) were coated with 10 μg/ml antigen in 10 mM phosphate-buffered saline (PBS) at 4° C. overnight. Plates were rinsed three times with wash buffer (0.05% Tween 20 in 10 mM PBS, pH 7.2) and blocked with 1% BSA in PBS for one hour at 37° C. The appropriate test sera were applied at a starting dilution of 1:1000 and serially diluted two fold down the plate in PBS. Plates were incubated at 37° C. for 30 minutes and subsequently rinsed three times. Goat anti-rabbit or goat anti-mouse Ig-peroxidase conjugate diluted 1:10,000 in PBS was added to all wells and incubated for two hours at 37° C. Plates were rinsed three times with wash buffer and freshly prepared TMB peroxidase (Kirkegaard and Perry Laboratories) was added. Reactions were quenched with 0.18 M H2SO4 after 30 minutes at room temperature and OD450 was measured with a Labsystems Multiskan plate reader using Ascent software. ELISA titers are expressed as the reciprocal of the last dilution which gave a reading OD450>0.10.
as §3

[2] = test system: rabbit sera prepared against whole M protein; assay: ELISA: peptide recognition by anti-M protein rabbit sera; assay type: binding; details: for immunoreactivity of peptide with anti-M protein rabbit sera (ELISA): rabbit sera against whole M protein of the respective serotype
Method: Overlapping peptides representing each M type were assessed for their immunogenicity using ELISA and dot-immunoblot.
as §5
The immunoreactivity of several synthetic peptides was determined by ELISA using rabbit sera prepared against whole M protein. The synthetic peptides are representative of relatively small portions of the M protein N-terminus; therefore, it was advantageous to determine if the epitopes contained within particular peptides were immunoreactive with sera prepared against whole M protein. It was shown that the whole anti-M protein rabbit sera of the respective serotypes could bind to each of the synthetic peptides within that serotype. However, some peptides were more highly immunoreactive than others, thus being better suited for use in the animal studies.

GAS M type M12 = assay: Opsonophagocytosis / bactericidal activity in vitro, GAS M type M12; assay type: cell-based, Group A streptococci
Method: as §1, §2

GAS M type M3 or M43 = assay: Reduction of colonization in mice, colonizing GAS M type M3 or M43; assay type: in vivo
Method: as §3, §4
Some of the peptides were tested for reduction of colonization of GAS in mice. […] The peptides were administered together but were not chemically combined in any way. […] Some of the mice were colonized by M3, and some of the mice were colonized by M43.

GAS M type M1 [3] = assay: Reduction of colonization in mice, colonizing GAS M type M1; assay type: in vivo
GAS M type M1 [4] = assay: Opsonophagocytosis / bactericidal activity in vitro, GAS M type M1; assay type: cell-based, Group A streptococci
Method: as §1, §2

| Sequence | reduction of M3 type bacteria (GAS M type M3) | % CFU reduction (GAS M type M3) | Reduction of colonization (streptococci (GAS)) [%] | reduction of M43 type bacteria (GAS M type M43) | % CFU reduction (GAS M type M43) | Opsono (in vitro) (GAS) | ELISA (elicitation of antibodies) [1] | immunoreactivity by ELISA using rabbit sera prepared against whole M protein [2] | % CFU reduction (GAS M type M12) | immunoreactivity of peptide with anti-M protein rabbit sera (ELISA) [2] | cross-type protection in vivo (GAS M type M3 or M43; mice colonized by M3 or M43) | % CFU reduction (GAS M type M3 or M43; mice, colonizing GAS M type M3 or M43, reduction overall) | % CFU reduction (GAS M type M1 [3]) | % CFU reduction (GAS M type M1 [4]) |
| --- | --- | --- | --- | --- | --- | --- | --- | --- | --- | --- | --- | --- | --- | --- |
| CDARSVNGEFPRHVKLKNEIE [Peptide M3-1] | significantly reduce | 70-90% | 87 | significantly reduce | 80-90% | opsonophagocytize bacteria more effectively and yes | yes | confirmed | – | – | – | – | – | – |
| CDHSDLVAEKQRLEDLGQKFE [Peptide M12-1] | – | – | – | – | – | yes | yes | – | 70-80% | highest reactivity | – | – | – | – |
| CGEFPRHVKLKNEIENLLDQV [Peptide M3-2] | significantly reduce | 90-95% | 67 | significantly reduce | 60-80% | yes | yes | – | – | highest reactivity | capable in vivo of cross-type protection | 67% (P < 0.30) | – | – |
| CIRLRHENKDLKARLENAMEV [Peptide M1-3] | – | – | – | – | – | yes | yes | confirmed | – | – | – | – | 90% (P < 0.10) | 80-95% |

— patent publication US8637050B2, “Peptide vaccines against group A streptococci” (The United States of America, as represented by the …, priority 2001, dated 2014)
